Earlier results on 1 substance are cited in article PMC9627400 (ACS applied materials & interfaces, 2022).

For the series, the target named is IL-6. As to conditions: read-out: affinity; anti-IL-6 monoclonal antibody; cited from earlier work.

In the case of “siltuximab: an FDA-approved anti-IL-6 monoclonal antibody”, the Kd is 11.7 nM.
